Assay results as given in PubChem BioAssay (NCI).
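Compound exposure: 48 hours, 5 concentrations, 96-well plates. TGI denotes the concentration required for complete inhibition of growth.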

Experiments:
Assay in all cases: NCI-60 cell line screen, 48 h
[1] = tested on: SK-MEL-2 melanoma
[2] = tested on: KM12 colon
[3] = tested on: IGROV1 ovarian
[4] = tested on: A549 NSCLC
[5] = tested on: SW-620 colon
[6] = tested on: UO-31 renal
[7] = tested on: UACC-62 melanoma
[8] = tested on: MDA-MB-435
[9] = tested on: ACHN renal
[10] = tested on: SK-MEL-28 melanoma
[11] = tested on: NCI/ADR-RES ovarian
[12] = tested on: SN12C renal
[13] = tested on: NCI-H226 lung
[14] = tested on: SK-OV-3 ovarian
[15] = tested on: OVCAR-3 ovarian
[16] = tested on: HT29 colon
[17] = tested on: LOX IMVI melanoma
[18] = tested on: HCT-15 colon
[19] = tested on: RPMI-8226 leukemia
[20] = tested on: SNB-75 CNS
[21] = tested on: HCC-2998 colon
[22] = tested on: RXF 393 renal
[23] = tested on: SNB-19 CNS
[24] = tested on: HCT-116 colon
[25] = tested on: DU-145 prostate
[26] = tested on: NCI-H460 lung
[27] = tested on: OVCAR-4 ovarian
[28] = tested on: HS 578T breast
[29] = tested on: PC-3 prostate
[30] = tested on: CCRF-CEM leukemia
[31] = tested on: HOP-62 NSCLC
[32] = tested on: MCF7 breast
[33] = tested on: EKVX NSCLC
[34] = tested on: T-47D breast
[35] = tested on: HL-60(TB) leukemia
[36] = tested on: SF-539 CNS
[37] = tested on: K-562 leukemia
[38] = tested on: M14 melanoma
[39] = tested on: MDA-MB-231 breast
[40] = tested on: CAKI-1 renal
[41] = tested on: SK-MEL-5 melanoma
[42] = tested on: UACC-257 melanoma
[43] = tested on: OVCAR-5 ovarian
[44] = tested on: 786-0 renal
[45] = tested on: U251 CNS
[46] = tested on: SF-295 CNS
[47] = tested on: MOLT-4 leukemia
[48] = tested on: MDA-N
[49] = tested on: HOP-92 NSCLC
[50] = tested on: MALME-3M melanoma
[51] = tested on: BT-549 breast
[52] = tested on: A498 renal
[53] = tested on: SR leukemia
[54] = tested on: NCI-H23 lung
[55] = tested on: OVCAR-8 ovarian
[56] = tested on: COLO 205 colon
[57] = tested on: NCI-H522 lung
[58] = tested on: SF-268 CNS
[59] = tested on: TK-10 renal

CC(=O)C(=[N+]=[N-])C(=O)NCC#N
TGI [1]: > 10 µM | TGI [2]: > 10 µM | TGI [3]: > 10 µM | TGI [4]: > 10 µM | TGI [5]: > 10 µM | TGI [6]: > 10 µM | TGI [7]: > 10 µM | TGI [8]: > 10 µM | TGI [9]: > 10 µM | TGI [10]: > 10 µM | TGI [11]: > 10 µM | TGI [12]: > 10 µM | TGI [13]: > 10 µM | TGI [14]: > 10 µM | TGI [15]: > 10 µM | TGI [16]: > 10 µM | TGI [17]: > 10 µM | TGI [18]: > 10 µM | TGI [19]: > 10 µM | TGI [20]: > 10 µM | TGI [21]: > 10 µM | TGI [22]: > 10 µM | TGI [23]: > 10 µM | TGI [24]: > 10 µM | TGI [25]: > 10 µM | TGI [26]: > 10 µM | TGI [27]: > 10 µM | TGI [28]: > 10 µM | TGI [29]: > 10 µM | TGI [30]: > 10 µM | TGI [31]: > 10 µM | TGI [32]: > 10 µM | TGI [33]: > 10 µM | TGI [34]: > 10 µM | TGI [35]: > 10 µM | TGI [36]: > 10 µM | TGI [37]: > 10 µM | TGI [38]: > 10 µM | TGI [39]: > 10 µM | TGI [40]: > 10 µM | TGI [41]: > 10 µM | TGI [42]: > 10 µM | TGI [43]: > 10 µM | TGI [44]: > 10 µM | TGI [45]: > 10 µM | TGI [46]: > 10 µM | TGI [47]: > 10 µM | TGI [48]: > 10 µM | TGI [49]: > 10 µM | TGI [50]: > 10 µM | TGI [51]: > 10 µM | TGI [52]: > 10 µM | TGI [53]: > 10 µM | TGI [54]: > 10 µM | TGI [55]: > 10 µM | TGI [56]: > 10 µM | TGI [57]: > 10 µM | TGI [58]: > 10 µM | TGI [59]: > 10 µM

Cc1oc2c(c1C)S(=O)(=O)C(C#N)=C(c1ccccc1)N2
TGI [1]: > 100 µM | TGI [2]: > 100 µM | TGI [3]: > 100 µM | TGI [4]: > 100 µM | TGI [5]: > 100 µM | TGI [6]: > 100 µM | TGI [7]: > 100 µM | TGI [8]: > 100 µM | TGI [9]: > 100 µM | TGI [10]: > 100 µM | TGI [11]: > 100 µM | TGI [12]: > 100 µM | TGI [13]: > 100 µM | TGI [14]: > 100 µM | TGI [15]: > 100 µM | TGI [16]: > 100 µM | TGI [17]: > 100 µM | TGI [18]: > 100 µM | TGI [19]: > 100 µM | TGI [20]: > 100 µM | TGI [21]: > 100 µM | TGI [23]: > 100 µM | TGI [25]: > 100 µM | TGI [26]: > 100 µM | TGI [27]: > 100 µM | TGI [28]: > 100 µM | TGI [29]: > 100 µM | TGI [31]: > 100 µM | TGI [32]: > 100 µM | TGI [33]: > 100 µM | TGI [34]: > 100 µM | TGI [36]: > 100 µM | TGI [37]: > 100 µM | TGI [38]: > 100 µM | TGI [39]: > 100 µM | TGI [40]: > 100 µM | TGI [41]: > 100 µM | TGI [42]: > 100 µM | TGI [43]: > 100 µM | TGI [44]: > 100 µM | TGI [45]: > 100 µM | TGI [46]: > 100 µM | TGI [47]: > 100 µM | TGI [48]: > 100 µM | TGI [49]: > 100 µM | TGI [50]: > 100 µM | TGI [51]: > 100 µM | TGI [52]: > 100 µM | TGI [53]: > 100 µM | TGI [54]: > 100 µM | TGI [55]: > 100 µM | TGI [56]: > 100 µM | TGI [57]: > 100 µM | TGI [58]: > 100 µM | TGI [59]: > 100 µM

COC(=O)c1c(O)ccc2c1c1c(n2Cc2ccccc2)C(=O)c2ccccc2C1=O
TGI [1]: 27.7 µM | TGI [2]: 29.7 µM | TGI [3]: 25.8 µM | TGI [4]: 22.6 µM | TGI [5]: 46 µM | TGI [6]: 22.1 µM | TGI [8]: 28 µM | TGI [9]: 25.3 µM | TGI [10]: 31.7 µM | TGI [11]: 28.8 µM | TGI [12]: 28.1 µM | TGI [13]: 39.6 µM | TGI [14]: 30.1 µM | TGI [15]: 47.5 µM | TGI [16]: 22.6 µM | TGI [17]: 41.6 µM | TGI [18]: 30.3 µM | TGI [19]: 29.2 µM | TGI [20]: 29.1 µM | TGI [21]: 17.9 µM | TGI [22]: 37 µM | TGI [23]: 28.7 µM | TGI [24]: 27.8 µM | TGI [25]: 49.9 µM | TGI [26]: 59.8 µM | TGI [27]: 24.3 µM | TGI [28]: 43.3 µM | TGI [29]: 29.4 µM | TGI [30]: 46.8 µM | TGI [31]: 38.8 µM | TGI [32]: 35 µM | TGI [33]: 36.6 µM | TGI [34]: 42.1 µM | TGI [35]: 47.2 µM | TGI [36]: 29.1 µM | TGI [37]: 36.3 µM | TGI [38]: 37.4 µM | TGI [39]: 32.2 µM | TGI [40]: 36.9 µM | TGI [41]: 31.9 µM | TGI [42]: 32.8 µM | TGI [43]: 39.2 µM | TGI [44]: 32.1 µM | TGI [45]: 29.2 µM | TGI [46]: 36.3 µM | TGI [47]: 25.3 µM | TGI [48]: 56.3 µM | TGI [49]: 27.1 µM | TGI [50]: 54.7 µM | TGI [51]: 31.6 µM | TGI [53]: 50.1 µM | TGI [54]: 31.6 µM | TGI [55]: 26.2 µM | TGI [56]: 3.32 µM | TGI [57]: 23.8 µM | TGI [58]: 33 µM | TGI [59]: 31.8 µM
